Assay results as given in ChEMBL document CHEMBL5465560, “Selectivity Literature for EUbOPEN Chemogenomic Library” (2024).
Values belong to the molecule of their own block, whether it stands above or below them.

Legend:
[1] = molecular target: Tyrosine-protein kinase Yes (Homo sapiens) (UniProt P07947); assay: Selectivity interaction (Millipore kinase profiler) EUB0000124b YES1; settings: at 10 µM
[2] = molecular target: Homeodomain-interacting protein kinase 4 (Homo sapiens, UniProt Q8NE63); assay: Selectivity interaction (Enzymatic assay (Eurofins)) EUB0001049a HIPK4
[3] = molecular target: T1, Uncharacterized serine/threonine-protein kinase SBK3 (Homo sapiens) (UniProt P0C264); assay: Selectivity interaction (Ambit KINOMEscan and KiNATiv profiling in Jurkat cells) EUB0000090b SBK3; assay type: cell-based; settings: at 1 µM
T1 sequence (whole entry): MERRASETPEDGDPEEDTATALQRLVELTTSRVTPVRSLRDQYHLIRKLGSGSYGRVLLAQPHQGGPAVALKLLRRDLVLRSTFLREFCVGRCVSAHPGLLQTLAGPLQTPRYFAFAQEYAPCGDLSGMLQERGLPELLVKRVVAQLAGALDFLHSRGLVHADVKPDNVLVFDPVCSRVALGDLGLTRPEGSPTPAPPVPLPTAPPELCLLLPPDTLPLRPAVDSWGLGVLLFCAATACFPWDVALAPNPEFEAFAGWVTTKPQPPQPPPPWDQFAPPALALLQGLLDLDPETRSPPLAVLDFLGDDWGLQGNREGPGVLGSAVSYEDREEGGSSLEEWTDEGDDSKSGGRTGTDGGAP

[4] = molecular target: MAP/microtubule affinity-regulating kinase 3 (Homo sapiens) (UniProt P27448); assay: Selectivity interaction (ActivX KiNativ screen (kinase selectivity in THP-1 cell lysates)) EUB0000639a MARK3; assay type: subcellular; settings: lysate, at 0.2 µM
[5] = molecular target: T2, Phosphorylase b kinase gamma catalytic chain, liver/testis isoform (Homo sapiens) (UniProt P15735); assay: Selectivity interaction (Kinase panel (Invitrogen)) EUB0000639a PHKG2; settings: at 200 nM
T2 sequence (whole entry): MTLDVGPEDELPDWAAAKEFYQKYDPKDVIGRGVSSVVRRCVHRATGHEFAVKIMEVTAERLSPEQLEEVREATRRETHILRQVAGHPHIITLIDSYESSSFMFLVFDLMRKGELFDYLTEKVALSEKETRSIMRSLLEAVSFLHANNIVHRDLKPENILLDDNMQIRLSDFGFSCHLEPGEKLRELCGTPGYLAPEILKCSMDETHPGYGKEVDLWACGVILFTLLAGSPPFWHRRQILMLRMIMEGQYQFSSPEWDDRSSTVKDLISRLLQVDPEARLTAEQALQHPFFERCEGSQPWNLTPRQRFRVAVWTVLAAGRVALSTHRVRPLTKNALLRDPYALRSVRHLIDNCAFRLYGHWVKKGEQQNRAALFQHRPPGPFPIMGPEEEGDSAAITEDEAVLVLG

[6] = molecular target: T3, Histone-lysine N-methyltransferase SMYD3 (Homo sapiens) (UniProt Q9H7B4); settings: at 1 µM
T3 sequence (whole entry): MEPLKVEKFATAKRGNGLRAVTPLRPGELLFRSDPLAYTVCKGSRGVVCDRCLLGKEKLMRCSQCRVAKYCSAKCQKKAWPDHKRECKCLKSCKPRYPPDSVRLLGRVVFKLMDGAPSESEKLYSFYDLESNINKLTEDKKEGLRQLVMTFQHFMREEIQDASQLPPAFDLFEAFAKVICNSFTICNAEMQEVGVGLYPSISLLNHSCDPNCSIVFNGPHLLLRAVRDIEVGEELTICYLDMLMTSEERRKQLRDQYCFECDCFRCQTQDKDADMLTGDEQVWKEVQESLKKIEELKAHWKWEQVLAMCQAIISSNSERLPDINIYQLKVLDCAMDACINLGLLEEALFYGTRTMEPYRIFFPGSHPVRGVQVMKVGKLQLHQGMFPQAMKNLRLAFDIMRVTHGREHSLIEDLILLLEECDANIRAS

[7] = molecular target: CDK1/Cyclin A (Homo sapiens) (UniProt P06493+P20248); assay: Selectivity interaction (LanthaScreen Eu Kinase Binding Assay) EUB0001632a CDK1; assay type: protein-complex assay; settings: at 10 µM
[8] = molecular target: Rho-associated protein kinase 1 (Homo sapiens) (UniProt Q13464); assay: Selectivity interaction (KinomeScan (DiscoverX)) EUB0000092b ROCK1; settings: at 10 µM
[9] = molecular target: Proto-oncogene tyrosine-protein kinase ROS (Homo sapiens) (UniProt P08922); assay: Selectivity interaction (KinomeScan (DiscoverX)) EUB0000092b ROS1; settings: at 10 µM
[10] = molecular target: ALK tyrosine kinase receptor (Homo sapiens, UniProt Q9UM73); assay: Selectivity interaction (KinomeScan (DiscoverX)) EUB0000045b ALK
[11] = molecular target: Mitogen-activated protein kinase kinase kinase 4 (Homo sapiens) (UniProt Q9Y6R4); assay: Selectivity interaction (KinomeScan (DiscoverX)) EUB0001619a MAP3K4; settings: at 1 µM
[12] = molecular target: Tyrosine-protein kinase ABL1 (Homo sapiens, UniProt P00519); assay: Selectivity interaction (Kinase panel (KiNativ target engagement assay in Jurkat cells)) EUB0001635a ABL1; assay type: cell-based; settings: Selectivity number of off-targets 0.0, Selectivity number of targets 233.0, Source Knowledge https://www.sciencedirect.com/science/article/pii/S2451945619300674?via%3Dihub, at 1 µM
[13] = molecular target: T4, Mixed lineage kinase domain-like protein (Homo sapiens) (UniProt Q8NB16); assay: Selectivity interaction (Kinase panel (KiNativ target engagement assay in Jurkat cells)) EUB0001635a MLKL; assay type: cell-based; settings: at 1 µM
T4 sequence (whole entry): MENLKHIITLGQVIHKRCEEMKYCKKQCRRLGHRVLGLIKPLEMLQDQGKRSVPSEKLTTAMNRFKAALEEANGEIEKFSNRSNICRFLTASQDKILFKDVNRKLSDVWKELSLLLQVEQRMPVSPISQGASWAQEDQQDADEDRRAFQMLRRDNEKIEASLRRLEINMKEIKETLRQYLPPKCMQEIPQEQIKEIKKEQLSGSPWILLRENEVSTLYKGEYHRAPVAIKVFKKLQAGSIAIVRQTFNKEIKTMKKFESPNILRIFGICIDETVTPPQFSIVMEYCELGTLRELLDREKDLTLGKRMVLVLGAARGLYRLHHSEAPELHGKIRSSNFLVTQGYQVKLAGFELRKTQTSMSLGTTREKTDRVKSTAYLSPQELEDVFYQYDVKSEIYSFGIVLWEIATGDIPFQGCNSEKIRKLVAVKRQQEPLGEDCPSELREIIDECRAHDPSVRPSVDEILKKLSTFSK

ALK tyrosine kinase receptor, sequence (Q9UM73 19-1620 limits assumed): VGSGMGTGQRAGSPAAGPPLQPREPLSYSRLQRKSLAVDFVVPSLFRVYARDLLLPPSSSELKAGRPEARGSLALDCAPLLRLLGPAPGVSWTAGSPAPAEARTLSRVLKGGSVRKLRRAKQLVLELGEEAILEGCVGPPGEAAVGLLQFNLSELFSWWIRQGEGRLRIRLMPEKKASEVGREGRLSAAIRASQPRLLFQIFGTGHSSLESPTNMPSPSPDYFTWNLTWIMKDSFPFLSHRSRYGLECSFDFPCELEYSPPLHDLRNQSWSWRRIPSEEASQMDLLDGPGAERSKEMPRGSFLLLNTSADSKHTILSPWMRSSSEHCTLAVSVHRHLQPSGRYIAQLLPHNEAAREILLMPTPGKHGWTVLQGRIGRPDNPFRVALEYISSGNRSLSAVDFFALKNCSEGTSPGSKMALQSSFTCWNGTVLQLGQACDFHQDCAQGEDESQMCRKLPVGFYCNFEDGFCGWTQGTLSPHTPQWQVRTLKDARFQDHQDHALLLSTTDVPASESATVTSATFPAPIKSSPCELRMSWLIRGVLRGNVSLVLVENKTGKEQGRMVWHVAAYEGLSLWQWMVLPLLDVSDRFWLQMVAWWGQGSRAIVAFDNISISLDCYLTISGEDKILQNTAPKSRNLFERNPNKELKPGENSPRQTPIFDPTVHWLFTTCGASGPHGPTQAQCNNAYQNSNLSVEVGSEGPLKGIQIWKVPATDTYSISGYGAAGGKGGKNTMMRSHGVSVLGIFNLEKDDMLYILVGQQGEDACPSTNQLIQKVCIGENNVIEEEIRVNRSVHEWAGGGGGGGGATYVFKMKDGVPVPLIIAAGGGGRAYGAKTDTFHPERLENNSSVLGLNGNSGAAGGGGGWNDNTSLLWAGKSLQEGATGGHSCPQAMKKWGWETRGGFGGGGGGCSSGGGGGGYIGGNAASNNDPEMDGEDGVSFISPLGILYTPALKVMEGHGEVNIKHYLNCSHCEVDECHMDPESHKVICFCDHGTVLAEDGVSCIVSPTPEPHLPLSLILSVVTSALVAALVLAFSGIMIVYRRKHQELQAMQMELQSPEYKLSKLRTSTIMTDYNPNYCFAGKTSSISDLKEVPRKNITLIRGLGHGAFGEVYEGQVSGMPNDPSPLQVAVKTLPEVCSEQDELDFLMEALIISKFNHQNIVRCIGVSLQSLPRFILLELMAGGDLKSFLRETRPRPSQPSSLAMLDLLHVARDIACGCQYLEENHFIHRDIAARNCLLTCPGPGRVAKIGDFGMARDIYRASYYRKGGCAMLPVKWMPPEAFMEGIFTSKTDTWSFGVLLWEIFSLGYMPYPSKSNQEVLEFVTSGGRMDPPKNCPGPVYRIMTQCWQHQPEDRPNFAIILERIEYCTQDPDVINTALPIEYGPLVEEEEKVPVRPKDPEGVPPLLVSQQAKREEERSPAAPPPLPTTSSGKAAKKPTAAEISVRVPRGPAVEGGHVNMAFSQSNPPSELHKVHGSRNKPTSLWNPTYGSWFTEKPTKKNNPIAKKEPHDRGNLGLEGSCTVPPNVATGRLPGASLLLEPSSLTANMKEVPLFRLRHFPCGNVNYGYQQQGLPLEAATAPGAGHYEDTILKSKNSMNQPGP
Homeodomain-interacting protein kinase 4, sequence (Q8NE63 whole entry): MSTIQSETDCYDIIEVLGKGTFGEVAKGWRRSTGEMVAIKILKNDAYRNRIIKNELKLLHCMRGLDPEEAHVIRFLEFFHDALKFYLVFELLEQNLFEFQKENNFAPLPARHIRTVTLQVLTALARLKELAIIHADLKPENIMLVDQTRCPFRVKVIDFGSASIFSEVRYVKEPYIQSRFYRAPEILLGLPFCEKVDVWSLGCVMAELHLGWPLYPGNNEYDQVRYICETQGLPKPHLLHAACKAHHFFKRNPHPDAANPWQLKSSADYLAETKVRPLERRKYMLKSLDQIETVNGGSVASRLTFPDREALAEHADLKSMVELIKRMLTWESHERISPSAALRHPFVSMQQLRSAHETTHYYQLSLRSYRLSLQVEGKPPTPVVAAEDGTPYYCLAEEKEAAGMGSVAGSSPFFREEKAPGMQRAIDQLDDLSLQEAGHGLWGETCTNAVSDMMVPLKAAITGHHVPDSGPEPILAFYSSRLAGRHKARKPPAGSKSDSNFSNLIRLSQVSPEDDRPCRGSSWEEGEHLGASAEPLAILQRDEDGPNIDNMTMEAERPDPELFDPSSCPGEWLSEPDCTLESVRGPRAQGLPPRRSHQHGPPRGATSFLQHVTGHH
MAP/microtubule affinity-regulating kinase 3 (Homo sapiens), sequence (P27448 whole entry, looked up, canonical isoform): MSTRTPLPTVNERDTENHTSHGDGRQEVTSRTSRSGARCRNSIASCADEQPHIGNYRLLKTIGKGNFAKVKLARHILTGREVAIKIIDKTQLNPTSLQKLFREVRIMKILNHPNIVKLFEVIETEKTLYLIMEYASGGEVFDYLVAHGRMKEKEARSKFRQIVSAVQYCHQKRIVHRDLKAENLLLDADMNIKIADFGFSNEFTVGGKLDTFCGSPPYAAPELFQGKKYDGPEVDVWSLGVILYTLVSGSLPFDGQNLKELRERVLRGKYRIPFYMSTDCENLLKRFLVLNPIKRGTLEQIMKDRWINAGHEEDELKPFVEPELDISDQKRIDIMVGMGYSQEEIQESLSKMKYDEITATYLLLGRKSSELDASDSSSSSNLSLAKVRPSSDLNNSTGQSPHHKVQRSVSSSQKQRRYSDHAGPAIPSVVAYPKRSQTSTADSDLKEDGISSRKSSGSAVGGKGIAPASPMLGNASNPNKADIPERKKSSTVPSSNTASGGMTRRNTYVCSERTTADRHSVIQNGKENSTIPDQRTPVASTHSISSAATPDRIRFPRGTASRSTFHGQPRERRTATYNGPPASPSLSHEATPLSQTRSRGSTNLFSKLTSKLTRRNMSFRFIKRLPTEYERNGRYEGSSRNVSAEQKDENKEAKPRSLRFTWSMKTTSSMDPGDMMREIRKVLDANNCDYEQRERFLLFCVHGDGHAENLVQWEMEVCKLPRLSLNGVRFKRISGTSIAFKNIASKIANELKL
Tyrosine-protein kinase Yes (Homo sapiens), sequence (P07947 2-543 limits assumed): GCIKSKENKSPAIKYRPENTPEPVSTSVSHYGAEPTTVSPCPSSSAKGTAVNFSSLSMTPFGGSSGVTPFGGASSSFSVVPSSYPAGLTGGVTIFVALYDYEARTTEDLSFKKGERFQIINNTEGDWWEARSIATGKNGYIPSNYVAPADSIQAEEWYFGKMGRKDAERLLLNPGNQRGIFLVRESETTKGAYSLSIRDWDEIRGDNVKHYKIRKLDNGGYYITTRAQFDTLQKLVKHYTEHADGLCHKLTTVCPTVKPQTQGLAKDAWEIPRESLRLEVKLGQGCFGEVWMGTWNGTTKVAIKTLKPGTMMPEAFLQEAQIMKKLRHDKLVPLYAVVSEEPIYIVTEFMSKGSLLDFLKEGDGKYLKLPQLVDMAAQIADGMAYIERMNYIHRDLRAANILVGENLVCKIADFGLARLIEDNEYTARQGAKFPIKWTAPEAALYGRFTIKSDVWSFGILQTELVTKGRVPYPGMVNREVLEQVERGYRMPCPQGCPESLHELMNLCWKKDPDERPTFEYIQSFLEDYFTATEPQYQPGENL
Rho-associated protein kinase 1 (Homo sapiens), sequence (Q13464 2-1354 limits assumed): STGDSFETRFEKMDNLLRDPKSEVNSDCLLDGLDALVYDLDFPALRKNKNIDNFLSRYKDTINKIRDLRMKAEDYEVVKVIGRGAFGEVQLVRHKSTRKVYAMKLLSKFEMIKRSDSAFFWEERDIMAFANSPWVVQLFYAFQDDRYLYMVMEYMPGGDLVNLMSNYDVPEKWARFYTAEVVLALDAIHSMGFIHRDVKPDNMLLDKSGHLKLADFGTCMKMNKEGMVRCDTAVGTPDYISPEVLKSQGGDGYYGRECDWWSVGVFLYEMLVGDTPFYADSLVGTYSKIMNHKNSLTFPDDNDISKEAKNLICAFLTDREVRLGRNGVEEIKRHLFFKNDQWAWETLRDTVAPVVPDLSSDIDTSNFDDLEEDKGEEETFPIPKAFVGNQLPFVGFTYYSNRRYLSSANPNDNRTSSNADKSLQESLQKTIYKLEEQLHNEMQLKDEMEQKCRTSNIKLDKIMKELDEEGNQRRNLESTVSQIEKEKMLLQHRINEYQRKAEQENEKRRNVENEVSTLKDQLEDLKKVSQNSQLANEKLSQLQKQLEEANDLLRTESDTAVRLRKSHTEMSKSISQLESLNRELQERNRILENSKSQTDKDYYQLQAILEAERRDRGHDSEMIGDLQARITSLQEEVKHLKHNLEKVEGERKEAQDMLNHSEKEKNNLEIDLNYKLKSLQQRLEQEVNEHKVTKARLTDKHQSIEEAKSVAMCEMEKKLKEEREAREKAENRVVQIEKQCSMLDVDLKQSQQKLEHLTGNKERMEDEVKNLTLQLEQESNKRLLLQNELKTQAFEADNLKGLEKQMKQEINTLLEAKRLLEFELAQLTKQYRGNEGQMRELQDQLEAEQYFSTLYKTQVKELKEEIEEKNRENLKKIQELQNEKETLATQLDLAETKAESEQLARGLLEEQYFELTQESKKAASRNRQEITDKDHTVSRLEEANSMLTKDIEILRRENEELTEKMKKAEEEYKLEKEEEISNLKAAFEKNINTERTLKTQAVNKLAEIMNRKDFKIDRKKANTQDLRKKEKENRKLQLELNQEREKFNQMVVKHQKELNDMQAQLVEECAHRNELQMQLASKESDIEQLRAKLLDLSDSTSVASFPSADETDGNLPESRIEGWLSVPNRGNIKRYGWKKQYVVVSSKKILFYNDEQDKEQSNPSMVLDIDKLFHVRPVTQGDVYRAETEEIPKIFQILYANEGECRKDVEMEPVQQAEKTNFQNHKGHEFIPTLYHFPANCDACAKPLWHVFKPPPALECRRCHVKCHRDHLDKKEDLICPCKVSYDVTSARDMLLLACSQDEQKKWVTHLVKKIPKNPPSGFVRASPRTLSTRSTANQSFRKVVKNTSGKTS

% of control [1]: 104%
SMILES: CC(=O)Nc1cccc(-n2c(=O)n(C3CC3)c(=O)c3c(Nc4ccc(I)cc4F)n(C)c(=O)c(C)c32)c1

SMILES: COc1cc(Nc2nc(C)cc(-c3cnn4nc(OC)ccc34)n2)cc(C(F)(F)F)c1
IC50 [2]: > 10 µM

SMILES: CN(C)C/C=C/C(=O)Nc1ccc(C(=O)N2CCCC(Nc3ncc(Cl)c(-c4c[nH]c5ccccc45)n3)C2)cc1 (centres undefined)
% of control [3]: 82%

% of inhibition [4]: 2.7%
% of inhibition [5]: 24.7%
SMILES: CC[C@@H]1[C@H](F)C(=O)N[C@@H]1COc1nccc2cc(C(N)=O)c(OC)cc12 [ZIMLOVISERTIB]

% activity [6]: > 85%
SMILES: CNCCN1CCC(c2cc(CN(C)C(=O)c3cccc(Oc4ccccc4)c3)ccn2)CC1

% of inhibition [7]: -246%
SMILES: Cn1cc(-n2cnc3c(NCc4nc5cc(Cl)c(Cl)cc5[nH]4)nc(N4CCOCC4)nc32)cn1

SMILES: CCC(=O)N1CCN(c2ccc(-n3c(=O)ccc4cnc5ccc(-c6cnc7ccccc7c6)cc5c43)cc2C(F)(F)F)CC1
% of control [8]: 53%
% of control [9]: 71%

SMILES: C=CC(=O)Nc1cc(-n2c(=O)ccc3cnc4ccc(-c5ccc(NS(C)(=O)=O)cc5)cc4c32)ccc1C
% of control ([10]; at 1 µM): 100%
% of control ([10]; at 10 µM): 100%

SMILES: N#Cc1cccc(-c2c[nH]c3ncnc(N4CCOCC4)c23)c1
% of control [11]: 100%

SMILES: C=CC(=O)Nc1ccc(C(=O)Nc2[nH]nc3c2CN(C(=O)N[C@H](CN(C)C)c2ccccc2)C3(C)C)cc1
% of engagement [12]: -19.4%
% of engagement [13]: 5.6%
